We go through 1 compound from PMC5218480 (PLoS ONE, 2017).

For this test, the system named is MV-4-11 cells. Nature of the test: Gene expression microarray analysis (Affymetrix PrimeView) and GSEA. Details: RFU PODN (11730768_x_at) / Fold change /veh PODN (11730768_x_at) / RFU LINC00158 (11744669_a_at) / Fold change /veh LINC00158 (11744669_a_at) / RFU DUSP10 (11751237_a_at) / Fold change /veh DUSP10 (11751237_a_at) / RFU ID3 (11757404_x_at) / Fold change /veh ID3 (11757404_x_at) / RFU PLEKHG5 (11737974_s_at) / Fold change /veh PLEKHG5 (11737974_s_at) / RFU LRRC4B (11730491_at) / Fold change /veh LRRC4B (11730491_at) / RFU GIMAP4 (11747438_a_at) / Fold change /veh GIMAP4 (11747438_a_at) / RFU KRT8 (11758183_x_at) / Fold change /veh KRT8 (11758183_x_at) / RFU CNN1 (11734310_a_at) / Fold change /veh CNN1 (11734310_a_at) / RFU VPS37D (11726825_at) / Fold change /veh VPS37D (11726825_at) / RFU C10orf10 (11716522_x_at) / Fold change /veh C10orf10 (11716522_x_at) / RFU KIR2DL2 /// KIR2DL4 /// KIR2DL5A /// KIR2DL5B /// KIR2DS1 /// KIR2DS2 /// KIR2DS3 /// KIR2DS4 /// KIR3DL3 /// KIR3DL3 /// KIR3DS1 (11738374_at) / Fold change /veh KIR2DL2 /// KIR2DL4 /// KIR2DL5A /// KIR2DL5B /// KIR2DS1 /// KIR2DS2 /// KIR2DS3 /// KIR2DS4 /// KIR3DL3 /// KIR3DL3 /// KIR3DS1 (11738374_at) / RFU C1QL1 (11718748_at) / Fold change /veh C1QL1 (11718748_at) / RFU TMPRSS4 (11747572_a_at) / Fold change /veh TMPRSS4 (11747572_a_at) / RFU HAMP (11756126_x_at) / Fold change /veh HAMP (11756126_x_at) / RFU RNFT2 (11725882_a_at) / Fold change /veh RNFT2 (11725882_a_at) / RFU NR4A2 (11747474_a_at) / Fold change /veh NR4A2 (11747474_a_at) / RFU ABCC12 (11746883_a_at) / Fold change /veh ABCC12 (11746883_a_at) / RFU TMEM136 (11760407_x_at) / Fold change /veh TMEM136 (11760407_x_at) / RFU CLDN22 /// WWC2 (11732394_at) / Fold change /veh CLDN22 /// WWC2 (11732394_at) / RFU HLA-DPB1 (11760878_x_at) / Fold change /veh HLA-DPB1 (11760878_x_at) / RFU SPINT1 (11716480_a_at) / Fold change /veh SPINT1 (11716480_a_at) / RFU GAP43 (11754022_s_at) / Fold change /veh GAP43 (11754022_s_at) / RFU A4GNT (11735810_at) / Fold change /veh A4GNT (11735810_at) / RFU PRB3 (11715151_x_at) / Fold change /veh PRB3 (11715151_x_at) / RFU TUBB4B (11761932_at) / Fold change /veh TUBB4B (11761932_at) / RFU CAPN14 (11732068_a_at) / Fold change /veh CAPN14 (11732068_a_at) / RFU TMCC2 (11721928_a_at) / Fold change /veh TMCC2 (11721928_a_at) / RFU IRGQ (11745062_a_at) / Fold change /veh IRGQ (11745062_a_at) / RFU FAM174B (11720279_a_at) / Fold change /veh FAM174B (11720279_a_at) / RFU TMPRSS4 (11748680_a_at) / Fold change /veh TMPRSS4 (11748680_a_at) / RFU FAM212B (11763350_a_at) / Fold change /veh FAM212B (11763350_a_at) / RFU PLEKHG5 (11743358_a_at) / Fold change /veh PLEKHG5 (11743358_a_at) / RFU ZSCAN30 (11745921_a_at) / Fold change /veh ZSCAN30 (11745921_a_at) / RFU CMKLR1 (11741424_a_at) / Fold change /veh CMKLR1 (11741424_a_at) / RFU LOC101060620 /// MAPK8IP1 (11723275_at) / Fold change /veh LOC101060620 /// MAPK8IP1 (11723275_at) / RFU SPTSSB (11747773_x_at) / Fold change /veh SPTSSB (11747773_x_at) / RFU PRSS12 (11739890_at) / Fold change /veh PRSS12 (11739890_at) / RFU BIN1 (11741810_x_at) / Fold change /veh BIN1 (11741810_x_at) / RFU WNT11 (11732464_a_at) / Fold change /veh WNT11 (11732464_a_at) / RFU C10orf10 (11716521_a_at) / Fold change /veh C10orf10 (11716521_a_at) / RFU C5orf56 (11738089_at) / Fold change /veh C5orf56 (11738089_at) / RFU CYB561 (11721691_x_at) / Fold change /veh CYB561 (11721691_x_at) / RFU ANKRD19P (11752326_a_at) / Fold change /veh ANKRD19P (11752326_a_at) / RFU OR2T12 /// OR2T33 /// OR2T8 (11738714_s_at) / Fold change /veh OR2T12 /// OR2T33 /// OR2T8 (11738714_s_at) / RFU VCAN (11748164_a_at) / Fold change /veh VCAN (11748164_a_at) / RFU JSRP1 (11732532_at) / Fold change /veh JSRP1 (11732532_at) / RFU KRTAP10-11 (11738290_x_at) / Fold change /veh KRTAP10-11 (11738290_x_at) / RFU MYO3A (11730013_a_at) / Fold change /veh MYO3A (11730013_a_at) / RFU EBF3 (11725865_a_at) / Fold change /veh EBF3 (11725865_a_at) / RFU CAMK2N1 (11719241_x_at) / Fold change /veh CAMK2N1 (11719241_x_at) / RFU C5orf56 (11738088_a_at) / Fold change /veh C5orf56 (11738088_a_at) / RFU OLFML3 (11715873_a_at) / Fold change /veh OLFML3 (11715873_a_at) / RFU LOC100653217 /// NTM (11731650_a_at) / Fold change /veh LOC100653217 /// NTM (11731650_a_at) / RFU MAPK11 (11762145_a_at) / Fold change /veh MAPK11 (11762145_a_at) / RFU FIZ1 (11724087_x_at) / Fold change /veh FIZ1 (11724087_x_at) / RFU OASL (11726364_x_at) / Fold change /veh OASL (11726364_x_at) / RFU SOX15 (11748057_x_at) / Fold change /veh SOX15 (11748057_x_at) / RFU CD79A (11719716_a_at) / Fold change /veh CD79A (11719716_a_at) / RFU HIST1H1D (11736915_at) / Fold change /veh HIST1H1D (11736915_at) / RFU CASKIN2 (11723855_a_at) / Fold change /veh CASKIN2 (11723855_a_at) / RFU LOC730098 (11760151_x_at) / Fold change /veh LOC730098 (11760151_x_at) / RFU OR4N2 (11742367_at) / Fold change /veh OR4N2 (11742367_at) / RFU PRRT2 (11749266_a_at) / Fold change /veh PRRT2 (11749266_a_at) / RFU SNX32 (11753110_a_at) / Fold change /veh SNX32 (11753110_a_at) / RFU CDHR5 (11726645_a_at) / Fold change /veh CDHR5 (11726645_a_at) / RFU RCAN1 (11760418_a_at) / Fold change /veh RCAN1 (11760418_a_at) / RFU FAM167A (11723789_a_at) / Fold change /veh FAM167A (11723789_a_at) / RFU FAM26E (11764081_at) / Fold change /veh FAM26E (11764081_at) / RFU ISYNA1 (11749810_s_at) / Fold change /veh ISYNA1 (11749810_s_at) / RFU ACY1 (11761880_at) / Fold change /veh ACY1 (11761880_at) / RFU 11764098_at / Fold change /veh 11764098_at / RFU SAMD14 (11745864_x_at) / Fold change /veh SAMD14 (11745864_x_at) / RFU NPB (11741838_a_at) / Fold change /veh NPB (11741838_a_at) / RFU TMPRSS6 (11731388_a_at) / Fold change /veh TMPRSS6 (11731388_a_at) / RFU KRTAP10-2 (11738614_at) / Fold change /veh KRTAP10-2 (11738614_at) / RFU ARHGAP8 /// PRR5-ARHGAP8 (11727945_x_at) / Fold change /veh ARHGAP8 /// PRR5-ARHGAP8 (11727945_x_at) / RFU KRTAP5-7 /// NADSYN1 (11734609_at) / Fold change /veh KRTAP5-7 /// NADSYN1 (11734609_at) / RFU RASL12 (11751679_a_at) / Fold change /veh RASL12 (11751679_a_at) / RFU CDKN2B (11736163_a_at) / Fold change /veh CDKN2B (11736163_a_at) / RFU PRF1 (11729649_at) / Fold change /veh PRF1 (11729649_at) / RFU, ZNF638 /// ZNF638-IT1 / Fold change vs veh, ZNF638 /// ZNF638-IT1 / RFU, PANK3 / Fold change vs veh, PANK3 / RFU, SH3YL1 / Fold change vs veh, SH3YL1 / RFU, ZEB2 / Fold change vs veh, ZEB2 / RFU, NRIP1 / Fold change vs veh, NRIP1 / RFU, PTTG1IP / Fold change vs veh, PTTG1IP / RFU, CAPN2 / Fold change vs veh, CAPN2 / RFU, MED14 / Fold change vs veh, MED14 / RFU, SNORA58 / Fold change vs veh, SNORA58 / RFU, C1orf63 / Fold change vs veh, C1orf63 / RFU, LRRFIP1 / Fold change vs veh, LRRFIP1 / RFU, NDUFAF7 / Fold change vs veh, NDUFAF7 / RFU, SLC12A2 / Fold change vs veh, SLC12A2 / RFU, IBTK / Fold change vs veh, IBTK / RFU, ESF1 / Fold change vs veh, ESF1 / Fold change vs veh, TMEM50B / RFU, TAOK1 / Fold change vs veh, TAOK1 / RFU, ACBD3 / Fold change vs veh, ACBD3 / RFU, TMA16 / Fold change vs veh, TMA16 / RFU, RWDD3 / Fold change vs veh, RWDD3 / RFU, BCAT1 / Fold change vs veh, BCAT1 / RFU, EDEM3 / Fold change vs veh, EDEM3 / RFU, TMEM33 / Fold change vs veh, TMEM33 / RFU, WDR75 / Fold change vs veh, WDR75 / RFU, AHCTF1 / Fold change vs veh, AHCTF1 / RFU, TFRC / Fold change vs veh, TFRC / RFU, ZDHHC17 / Fold change vs veh, ZDHHC17 / RFU, NOM1 / Fold change vs veh, NOM1 / RFU, ARL8B / Fold change vs veh, ARL8B / RFU, ZBTB11 / Fold change vs veh, ZBTB11 / RFU, TAMM41 / Fold change vs veh, TAMM41 / RFU, KIAA1704 /// LOC100996395 / Fold change vs veh, KIAA1704 /// LOC100996395 / RFU, ING1 / Fold change vs veh, ING1 / RFU, TRMT61B / Fold change vs veh, TRMT61B / RFU, FUBP3 / Fold change vs veh, FUBP3 / RFU, TP53 / Fold change vs veh, TP53 / RFU, TNKS2 / Fold change vs veh, TNKS2 / RFU, ZFP14 / Fold change vs veh, ZFP14 / RFU, ACTR2 / Fold change vs veh, ACTR2 / RFU, PPP3R1 / Fold change vs veh, PPP3R1 / RFU, PIK3R1 / Fold change vs veh, PIK3R1 / RFU, HNRNPA1 / Fold change vs veh, HNRNPA1 / RFU, RNF170 / Fold change vs veh, RNF170 / RFU, ZNF28 / Fold change vs veh, ZNF28 / RFU, RNGTT / Fold change vs veh, RNGTT / RFU, OGT / Fold change vs veh, OGT / RFU, BRD1 / Fold change vs veh, BRD1 / RFU, MARS / Fold change vs veh, MARS / RFU, ZNF655 / Fold change vs veh, ZNF655 / RFU, FAHD1 / Fold change vs veh, FAHD1 / RFU, BDP1 / Fold change vs veh, BDP1 / RFU, LRRCC1 / Fold change vs veh, LRRCC1 / RFU, ARID1A / Fold change vs veh, ARID1A / RFU, ZNF146 / Fold change vs veh, ZNF146 / RFU, ZNF330 / Fold change vs veh, ZNF330 / RFU, GPN3 / Fold change vs veh, GPN3 / RFU, C9orf123 / Fold change vs veh, C9orf123 / RFU, N4BP2L2 / Fold change vs veh, N4BP2L2 / RFU, ARFIP1 / Fold change vs veh, ARFIP1 / RFU, FAM179B / Fold change vs veh, FAM179B / RFU, BCL10 / Fold change vs veh, BCL10 / RFU, UHRF1BP1L / Fold change vs veh, UHRF1BP1L / RFU, BET1 / Fold change vs veh, BET1 / RFU, CNOT2 / Fold change vs veh, CNOT2 / RFU, ZNF268 / Fold change vs veh, ZNF268 / Fold change vs veh, ZNF507 / RFU, DGCR2 / Fold change vs veh, DGCR2 / RFU, WDSUB1 / Fold change vs veh, WDSUB1 / Fold change vs veh, HSP90B1 /// MIR3652 / RFU, ADSS / Fold change vs veh, ADSS / RFU, GK / Fold change vs veh, GK / RFU, ZNF148 / Fold change vs veh, ZNF148 / RFU, TAF9 / Fold change vs veh, TAF9 / RFU, SLC1A5 / Fold change vs veh, SLC1A5 / RFU, SLMO2 / Fold change vs veh, SLMO2 / RFU, ABCC4 / Fold change vs veh, ABCC4 / RFU, LOC101060439 /// RAP1B / Fold change vs veh, LOC101060439 /// RAP1B / RFU, RFX7 / Fold change vs veh, RFX7 / RFU, GTPBP10 / Fold change vs veh, GTPBP10 / RFU, CNEP1R1 / Fold change vs veh, CNEP1R1 / RFU, BIVM-ERCC5 /// ERCC5 / Fold change vs veh, BIVM-ERCC5 /// ERCC5 / RFU, ILF3 / Fold change vs veh, ILF3 / RFU 11762660_at / Fold change /veh 11762660_at / RFU VCAN (11757783_s_at) / Fold change /veh VCAN (11757783_s_at) / RFU DDX43 (11728927_at) / Fold change /veh DDX43 (11728927_at) / RFU KRT8 (11758188_x_at) / Fold change /veh KRT8 (11758188_x_at) / RFU NKD1 (11759106_at) / Fold change /veh NKD1 (11759106_at) / RFU SRD5A1 (11742802_a_at) / Fold change /veh SRD5A1 (11742802_a_at) / RFU TPSAB1 /// TPSB2 (11721975_s_at) / Fold change /veh TPSAB1 /// TPSB2 (11721975_s_at) / RFU GSTM3 (11746129_a_at) / Fold change /veh GSTM3 (11746129_a_at) / RFU IL23R (11737362_x_at) / Fold change /veh IL23R (11737362_x_at) / RFU TMEM51 (11727254_a_at) / Fold change /veh TMEM51 (11727254_a_at) / RFU PIWIL2 (11732686_x_at) / Fold change /veh PIWIL2 (11732686_x_at) / RFU ORM1 (11744905_x_at) / Fold change /veh ORM1 (11744905_x_at) / RFU CCDC152 (11743942_at) / Fold change /veh CCDC152 (11743942_at) / RFU ECM1 (11717891_a_at) / Fold change /veh ECM1 (11717891_a_at) / RFU IL23R (11748794_a_at) / Fold change /veh IL23R (11748794_a_at) / RFU TNFAIP8L3 (11732012_x_at) / Fold change /veh TNFAIP8L3 (11732012_x_at) / RFU MBOAT4 (11741988_at) / Fold change /veh MBOAT4 (11741988_at) / RFU 11764193_at / Fold change /veh 11764193_at / RFU TMEM53 (11763286_at) / Fold change /veh TMEM53 (11763286_at) / RFU MAGEB2 (11727129_at) / Fold change /veh MAGEB2 (11727129_at) / RFU TMEM200A (11744735_a_at) / Fold change /veh TMEM200A (11744735_a_at) / RFU CCDC152 (11751479_a_at) / Fold change /veh CCDC152 (11751479_a_at) / RFU FAM211A (11726209_a_at) / Fold change /veh FAM211A (11726209_a_at) / RFU RGS16 (11746705_a_at) / Fold change /veh RGS16 (11746705_a_at) / RFU VCAN (11755009_s_at) / Fold change /veh VCAN (11755009_s_at) / RFU RHOB (11743442_s_at) / Fold change /veh RHOB (11743442_s_at) / RFU RGS16 (11720943_a_at) / Fold change /veh RGS16 (11720943_a_at) / RFU RGS16 (11720944_at) / Fold change /veh RGS16 (11720944_at) / RFU, VPS4B / Fold change vs veh, VPS4B / RFU, CREB1 / Fold change vs veh, CREB1 / RFU, DNAJC13 / Fold change vs veh, DNAJC13 / RFU, GNAQ / Fold change vs veh, GNAQ / RFU, CDK5R1 / Fold change vs veh, CDK5R1 / RFU, ZRANB3 / Fold change vs veh, ZRANB3 / RFU, CUL4A / Fold change vs veh, CUL4A / RFU, CCNY / Fold change vs veh, CCNY / RFU, UFL1 / Fold change vs veh, UFL1 / RFU, COG3 / Fold change vs veh, COG3 / RFU, DIAPH2 / Fold change vs veh, DIAPH2 / RFU, SKA2 / Fold change vs veh, SKA2 / RFU, AFF3 / Fold change vs veh, AFF3 / RFU, LMF1 / Fold change vs veh, LMF1 / RFU, IPO11 / Fold change vs veh, IPO11 / RFU, DFFB / Fold change vs veh, DFFB / RFU, FOXP1 / Fold change vs veh, FOXP1 / RFU, CARD8 / Fold change vs veh, CARD8 / RFU, STRN3 / Fold change vs veh, STRN3 / RFU, ADK / Fold change vs veh, ADK / RFU, RASSF2 / Fold change vs veh, RASSF2 / RFU, WIPF1 / Fold change vs veh, WIPF1 / RFU, LARP1B / Fold change vs veh, LARP1B / RFU, RASA1 / Fold change vs veh, RASA1 / RFU, RB1 / Fold change vs veh, RB1 / RFU, PPFIA1 / Fold change vs veh, PPFIA1 / RFU, MAT2A / Fold change vs veh, MAT2A / RFU, CCT5 / Fold change vs veh, CCT5 / RFU, WDR92 / Fold change vs veh, WDR92 / RFU, CUX1 / Fold change vs veh, CUX1 / RFU, TTC7A / Fold change vs veh, TTC7A / RFU, TMEM135 / Fold change vs veh, TMEM135 / RFU, DEPTOR / Fold change vs veh, DEPTOR / RFU, CPM / Fold change vs veh, CPM / RFU, DNAJB6 / Fold change vs veh, DNAJB6 / RFU, CACNA2D3 / Fold change vs veh, CACNA2D3 / RFU, DTX4 / Fold change vs veh, DTX4 / RFU, TFCP2 / Fold change vs veh, TFCP2 / RFU, GMCL1 /// GMCL1P1 / Fold change vs veh, GMCL1 /// GMCL1P1 / RFU, AEBP2 / Fold change vs veh, AEBP2 / RFU, SNHG1 /// SNORD22 /// SNORD25 /// SNORD26 /// SNORD27 /// SNORD28 /// SNORD29 /// SNORD31 / Fold change vs veh, SNHG1 /// SNORD22 /// SNORD25 /// SNORD26 /// SNORD27 /// SNORD28 /// SNORD29 /// SNORD31 / Fold change (Aza/veh), C12orf56 (ProbeSet 11735607_a_at) / Fold change (ACY-1035/veh), C12orf56 (ProbeSet 11735607_a_at) / Fold change (Aza/veh), FGFR1OP (ProbeSet 11751329_s_at) / Fold change (ACY-1035/veh), FGFR1OP (ProbeSet 11751329_s_at) / Fold change (Aza/veh), VPS36 (ProbeSet 11739960_a_at) / Fold change (ACY-1035/veh), VPS36 (ProbeSet 11739960_a_at) / RFU SYPL1 (11715823_x_at) / Fold change /veh SYPL1 (11715823_x_at) / RFU IGFBP7 (11715501_s_at) / Fold change /veh IGFBP7 (11715501_s_at) / RFU REEP3 (11722064_at) / Fold change /veh REEP3 (11722064_at) / RFU IGLL1 (11728026_x_at) / Fold change /veh IGLL1 (11728026_x_at): dose or concentration left out as unconfirmed. To be noted: ProbeSet 11718701_a_at; LIST B. The test is classed as cell-based, human.

Molecules are shown by their SMILES.

As to `Nc1ccc(-c2cccs2)cc1NC(=O)c1ccc2c(c1)cc(C1CC1)n2CCN1CCOCC1` [ACY-1035], the “Fold change vs veh, ARFIP1” value amounted to 0.86.
